Data as given in PMC11876601 (Molecular Systems Biology, 2025).
Where two headings read alike, the source gives them in different places.

Key:
[1] = molecular target: several subunits of CSNK2; experiment: Kinobeads competition pulldown in AsPC-1 lysate; assay type: binding, human; details: read-out: KDapp
Procedure: This was followed by incubation with Kinobeads ε (17.5 µl of settled beads) for 30 min at 4 °C to enrich kinases. […] Enriched proteins were reduced with 50 mM DTT in 8 M urea, 40 mM Tris-HCl, pH 7.4 for 30 min at room temperature, and alkylated with 55 mM chloroacetamide. After reducing the urea concentration to 1–2 M, proteins were digested with trypsin at 37 °C for 16 h. Subsequently, eluted peptides were desalted using SepPak tC18 µElution plates (Waters), freeze-dried by vacuum centrifugation, and stored at −20 °C.
For LC-MS/MS, dried peptides were reconstituted in 0.1% formic acid and analyzed on a Dionex Ultimate3000 nano HPLC (Thermo Scientific) coupled to an Orbitrap Fusion Tribrid mass spectrometer (Thermo Scientific), which was run in data-dependent mode. […]
Oxidized methionine and N-terminal acetylation were set as variable modification, and cysteine carbamidomethylation was set as fixed modification. Label-free quantification (LFQ) and match-between-runs were enabled. […]
Proteins were filtered by potential contaminants, reversed hits and proteins identified only by site. Residual binding of proteins was calculated from LFQ intensities as the ratio between drug doses and vehicle. […] Only kinases quantified with at least 4 unique peptides in the vehicle experiment were considered. […]

[2] = system: Suit2-07 cells; experiment: Drug combination viability screen (ATPlite, 72 h); assay type: cell-based, human; set-up: AUC: unit not given beside the values; details: for EC50: Homo sapiens;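 as to AUC: area under vehicle-normalized viability curve scaled 0 to 100 percent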;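 as to Curve bottom: fraction of vehicle control viability from four-parameter log-logistic fit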
[3] = system: MAP2K5; set-up: method as in Klaeger et al. (2017); details: lysate 4 cell line mix (Colo205, K-562, MV-4-11, and SK-N-BE(2)), Kinobeads y, ref Klaeger et al. (2017); cited from earlier work
[4] = system: MAPK8; set-up: method as in Klaeger et al. (2017); details: lysate 4 cell line mix (Colo205, K-562, MV-4-11, and SK-N-BE(2)), Kinobeads y, ref Klaeger et al. (2017); cited from earlier work
[5] = system: CAMKK2; set-up: method as in Klaeger et al. (2017); details: lysate 4 cell line mix (Colo205, K-562, MV-4-11, and SK-N-BE(2)), Kinobeads y, ref Klaeger et al. (2017); cited from earlier work
[6] = molecular target: IKBKE; details: 5 cell line mix lysate, Kinobeads ε, ref Reinecke et al. (2023), cited from earlier work
[7] = system: PTK6; set-up: method as in Reinecke et al. (2023); details: PTK6, 5 cell line mix lysate, Kinobeads ε, ref Reinecke et al. (2023), cited from earlier work
[8] = system: PRKAG2; set-up: method as in Reinecke et al. (2023); details: PRKAG2, 5 cell line mix lysate, Kinobeads ε, ref Reinecke et al. (2023), cited from earlier work
[9] = system: AZI2; details: AZI2, 5 cell line mix lysate, Kinobeads ε, ref Reinecke et al. (2023), cited from earlier work
[10] = system: PRKAB1; set-up: method as in Reinecke et al. (2023); details: PRKAB1, 5 cell line mix lysate, Kinobeads ε, ref Reinecke et al. (2023), cited from earlier work
[11] = system: CLK4; set-up: method as in Reinecke et al. (2023); details: CLK4, 5 cell line mix lysate, Kinobeads ε, ref Reinecke et al. (2023), cited from earlier work
[12] = system: RPS6KA1; set-up: method as in Reinecke et al. (2023); details: RPS6KA1, 5 cell line mix lysate, Kinobeads ε, ref Reinecke et al. (2023), cited from earlier work

In the case of Nc1nn2cc(F)cnc2c1C(=O)Nc1cncc(F)c1N1CCC(C(=O)N2CCN(C3COC3)CC2)CC1 [Gartisertib], the Kd [1] is reported as 10 to 20 nM.

Work on Nc1ccn([C@@H]2O[C@H](CO)[C@@H](O)C2(F)F)c(=O)n1 [GEM, Gemcitabine] yielded an EC50 ([2]; read-out: EC50) of 7.58 nM, an EC50 ([2]; read-out: pEC50 (converted)) of 7.59 nM and a Reponse ([2]; Suit2-07, R1, 13.72 nM) of 2323360. The Reponse ([2]; Suit2-07, R1, 41.15 nM) was 1614080, the Reponse ([2]; Suit2-07, R1, […] nM) was 1487640 and the Reponse ([2]; Suit2-07, R1, 370.37 nM) was 1265760. The Reponse ([2]; Suit2-07, R1, 1111.11 nM) was 1242400, the Reponse ([2]; Suit2-07, R1, 3333.33 nM) was 1298400 and the Reponse ([2]; Suit2-07, R1, 10000 nM) was 913840. For the same compound, the Reponse ([2]; Suit2-07, replicate R2, dose 13.72 nM, raw signal) was 3086160, the Reponse ([2]; Suit2-07, replicate R2, dose 41.15 nM, raw signal) was 2294600 and the Reponse ([2]; Suit2-07, replicate R2, dose 123.46 nM, raw signal) was 1746480. The Reponse ([2]; Suit2-07, replicate R2, dose 370.37 nM, raw signal) was 1730640, the Reponse ([2]; Suit2-07, replicate R2, dose 1111.11 nM, raw signal) was 1568520 and the Reponse ([2]; Suit2-07, replicate R2, dose 3333.33 nM, raw signal) was 1439120. For the same compound, the Reponse ([2]; Suit2-07, replicate R2, dose 10000 nM, raw signal) was 1173920, the Curve bottom ([2]; Suit2-07, GEM curve fit) was 0.19 and the Curve effect size ([2]; Suit2-07, GEM curve fit) was 0.81. For the same compound, the Curve slope ([2]; Suit2-07, GEM curve fit) was 1.96, the Curve top ([2]; Suit2-07, GEM curve fit) was 1.00 and the AUC ([2]; Suit2-07, GEM curve fit, in %) was 46.93.

For C[C@]12O[C@H](C[C@]1(O)CO)n1c3ccccc3c3c4c(c5c6ccccc6n2c5c31)CNC4=O [Lestaurtinib], the EC50 [3] is listed as 2050 nM, the EC50 [4] is listed as 1210 nM and the EC50 [5] is listed as […].

For COc1cc(N2CCC(N3CCN(C)CC3)CC2)ccc1Nc1ncc(Cl)c(Nc2ccccc2P(C)(C)=O)n1 [Brigatinib], the Kd ([6]; read-out: KDapp) is listed as 2520 nM, the EC50 [6] is listed as 4060 nM and the pKDapp [6] is listed as 5.60. The EC50 [7] was 85.9 nM, the pKDapp [7] was 7.38 and the Kd ([7]; read-out: KDapp) was 41.5 nM. For the same compound, the EC50 [8] was 510 nM, the pKDapp [8] was 6.48 and the Kd ([8]; read-out: KDapp) was 329 nM. For the same compound, the EC50 [9] was 1120 nM, the pKDapp [9] was 6.10 and the Kd ([9]; read-out: KDapp) was 789 nM. For the same compound, the EC50 [10] was 507 nM, the pKDapp [10] was 6.47 and the Kd ([10]; read-out: KDapp) was 335 nM. The EC50 [11] was 49.2 nM, the pKDapp [11] was 7.38 and the Kd ([11]; read-out: KDapp) was 41.6 nM. For the same compound, the EC50 [12] was 376 nM, the pKDapp [12] was 6.55 and the Kd ([12]; read-out: KDapp) was 283 nM.
